Literature values as cited in publication PMC7905424 (Biochemistry. Biokhimiia, 2021).
Read-outs that look alike come from different tables or passages of the source.

Assays:
[1] = test system: pro-inflammatory cytokine IL-6; details: COVID-19 patients

Row | Substance | Kd (SARS-CoV-2 S protein; read-out: Kd for ACE2, lower end of literature range) [nM] | Kd (SARS-CoV-2 S protein; read-out: Kd for ACE2, upper end of literature range) [nM] | content of the pro-inflammatory cytokine IL-6 [1]
1 | ACE2 | 1.2 | 95 | 
2 | low-molecular-weight heparin |  |  | pronounced decrease
